We go through 16 compounds from ChEMBL document CHEMBL2150866, “Irreversible 4-Aminopiperidine Transglutaminase 2 Inhibitors for Huntington's Disease” (ACS Med Chem Lett, 2012).

The nature of series [1]: Half life in mouse plasma at 1 uM. The format is ADME, cell-free.
Series [2] can be described thus: Half life in human plasma at 1 uM. The format is ADME, cell-free.
Series [3] concerns the target T1, Protein-glutamine gamma-glutamyltransferase (Homo sapiens, UniProt P21980).
T1 sequence (P21980 whole entry): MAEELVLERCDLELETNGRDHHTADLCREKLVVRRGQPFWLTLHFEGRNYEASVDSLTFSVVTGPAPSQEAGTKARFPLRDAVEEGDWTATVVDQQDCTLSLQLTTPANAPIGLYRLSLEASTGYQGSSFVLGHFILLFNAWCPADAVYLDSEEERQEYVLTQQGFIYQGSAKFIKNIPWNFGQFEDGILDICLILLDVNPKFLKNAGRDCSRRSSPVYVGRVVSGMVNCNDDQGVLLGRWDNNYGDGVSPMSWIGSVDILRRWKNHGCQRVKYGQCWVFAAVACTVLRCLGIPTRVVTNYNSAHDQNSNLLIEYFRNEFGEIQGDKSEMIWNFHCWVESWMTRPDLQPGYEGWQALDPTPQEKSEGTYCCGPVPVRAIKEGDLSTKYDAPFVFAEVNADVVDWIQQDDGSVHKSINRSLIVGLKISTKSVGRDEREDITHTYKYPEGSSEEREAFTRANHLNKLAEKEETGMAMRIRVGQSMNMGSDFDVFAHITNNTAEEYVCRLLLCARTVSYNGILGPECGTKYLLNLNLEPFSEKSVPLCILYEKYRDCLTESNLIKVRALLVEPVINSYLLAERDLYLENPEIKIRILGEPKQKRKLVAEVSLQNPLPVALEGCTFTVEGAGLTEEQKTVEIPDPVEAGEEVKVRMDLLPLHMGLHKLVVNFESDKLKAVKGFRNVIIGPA
Description: Inhibition of human TGM2.

The nature of series [4]: Chemical stability of the compound in phosphate buffer at pH 7.4 assessed as GSH adduct formation after 120 hrs. It is filed as physicochemical. As to conditions: pH 7.4, 120 h.

Regarding `C=CC(=O)NC1CCN(S(=O)(=O)c2ccc(C(=O)NC3Cc4ccccc4C3)cc2)CC1`, the half-life at 1 µM in series [1] and in series [2] was above 6 h throughout. Also, the half-inhibitory concentration (IC50) (in general, the concentration needed to halve the response being measured) in series [3] was 200 nM.
Regarding `C=CC(=O)NC1CCN(S(=O)(=O)c2ccc(C(=O)NCCc3ccc(C(F)(F)F)cc3)cc2)CC1`, the half-life at 1 µM in series [1] and in series [2] was above 6 h each time. The IC50 in series [3] turned out to be 550 nM.
Turning to `C=CC(=O)NC1CCN(S(=O)(=O)c2ccc(C(=O)NCCc3ccc(Cl)cc3)cc2)CC1`, the half-life at 1 µM in series [1] and in series [2] was above 6 h throughout. In series [3], the IC50 is 280 nM.
Turning to `C=CC(=O)NC1CCN(S(=O)(=O)c2ccc(C(=O)NCCc3ccc(C(C)(C)C)cc3)cc2)CC1`, the half-life at 1 µM in series [1] and in series [2] was above 6 h throughout. In series [3], this compound returned an IC50 of 22000 nM.
Take `C=CC(=O)NC1CCN(S(=O)(=O)c2ccc(C(=O)NCCc3ccc(-c4ccccc4)cc3)cc2)CC1`: the half-life at 1 µM in series [1] and in series [2] was above 6 h in each case. In series [3], this compound displayed an IC50 of 57000 nM.
With `C=CC(=O)NC1CCN(S(=O)(=O)c2ccc(C(=O)NCCc3ccc4ccccc4c3)cc2)CC1`, the half-life at 1 µM in series [1] and in series [2] was above 6 h in each case. Besides, it took 280 nM to reach half-maximal inhibition in series [3] (IC50).
On to `C=CC(=O)NC1CCN(S(=O)(=O)c2ccc(C(=O)NCCc3ccc4cccnc4c3)cc2)CC1`, for which the half-life at 1 µM in series [1] and in series [2] was above 6 h each time. In series [3], this compound registered an IC50 of 310 nM.
In the case of `C=CC(=O)NC1CCN(S(=O)(=O)c2ccc(C(=O)NCCc3ccccc3OC)cc2)CC1`, the half-life at 1 µM in series [1] and in series [2] was above 6 h each time. The compound also gave an IC50 in series [3] of 230 nM.
Consider `C=CC(=O)NC1CCN(S(=O)(=O)c2ccc(C(=O)NCCc3ccc(OC)c(OC)c3)cc2)CC1`, for which the half-life at 1 µM in series [1] and in series [2] was above 6 h throughout. The compound further returned an IC50 in series [3] of 460 nM.
With `C=CC(=O)NC1CCN(S(=O)(=O)c2ccc(C(=O)NCCc3cccc4c3OCO4)cc2)CC1`, the half-life at 1 µM in series [1] and in series [2] was above 6 h in each case. For the same compound, in series [3], the IC50 is 280 nM.
Take `C=CC(=O)NC1CCN(S(=O)(=O)c2ccc(C(=O)NCCc3cccc4c3OCC4)cc2)CC1`: the half-life at 1 µM in series [1] and in series [2] was above 6 h throughout. Besides, in series [3], it took 260 nM to reach half-maximal inhibition (IC50).
For the compound `C=CC(=O)NC1CCN(S(=O)(=O)c2ccc(C(=O)NCCc3cccc(Cl)c3)cc2)CC1`, the half-life at 1 µM in series [1] and in series [2] was above 6 h throughout. In series [4], the Stability entry is “Stable”. In addition, inhibition in series [3] was half-maximal at 170 nM (IC50).
As for `C=CC(=O)NC1CCN(S(=O)(=O)c2ccc(C(=O)NCCc3ccc(C)c(C)c3)cc2)CC1`, the half-life at 1 µM in series [1] and in series [2] was above 6 h in each case. This compound registered an IC50 in series [3] of 180 nM.
For `C=CC(=O)NC1CCN(C(=O)c2ccc(NC(=O)OCc3ccccc3)cc2)CC1`, the half-life at 1 µM in series [1] and in series [2] was above 6 h throughout. The IC50 in series [3] worked out at 8900 nM.
As to `C=CC(=O)NC1CCN(Cc2ccc(NC(=O)OCc3ccccc3)cc2)CC1`, the half-life at 1 µM in series [1] and in series [2] was above 6 h throughout. Besides, the IC50 in series [3] was 1600 nM.
Take `C=CC(=O)NC1CCN(S(=O)(=O)c2ccc(C(=O)N[C@@H]3C[C@H]3c3ccccc3)cc2)CC1` (racemic): the half-life at 1 µM in series [1] and in series [2] was above 6 h each time. Further, in series [3], the IC50 was found to be 410 nM.
